biological target: T1, Human TRPC6 (Homo sapiens, UniProt Q9Y210); assay: Evaluation of TRPC6 channel inhibitory activity (1), FLIPR Calcium 5 Assay Kit, OAG stimulation (Compound Nos. 1-1293); format: cell-based; settings: Human TRPC6 stably-expressing cells, OAG 30 μM, FLIPR Calcium 5 Assay Kit; read-out: Inhibitory activity (pIC50 class) (converted)
T1 construct: expressed in transfected cells
T1 sequence (Q9Y210 1-931): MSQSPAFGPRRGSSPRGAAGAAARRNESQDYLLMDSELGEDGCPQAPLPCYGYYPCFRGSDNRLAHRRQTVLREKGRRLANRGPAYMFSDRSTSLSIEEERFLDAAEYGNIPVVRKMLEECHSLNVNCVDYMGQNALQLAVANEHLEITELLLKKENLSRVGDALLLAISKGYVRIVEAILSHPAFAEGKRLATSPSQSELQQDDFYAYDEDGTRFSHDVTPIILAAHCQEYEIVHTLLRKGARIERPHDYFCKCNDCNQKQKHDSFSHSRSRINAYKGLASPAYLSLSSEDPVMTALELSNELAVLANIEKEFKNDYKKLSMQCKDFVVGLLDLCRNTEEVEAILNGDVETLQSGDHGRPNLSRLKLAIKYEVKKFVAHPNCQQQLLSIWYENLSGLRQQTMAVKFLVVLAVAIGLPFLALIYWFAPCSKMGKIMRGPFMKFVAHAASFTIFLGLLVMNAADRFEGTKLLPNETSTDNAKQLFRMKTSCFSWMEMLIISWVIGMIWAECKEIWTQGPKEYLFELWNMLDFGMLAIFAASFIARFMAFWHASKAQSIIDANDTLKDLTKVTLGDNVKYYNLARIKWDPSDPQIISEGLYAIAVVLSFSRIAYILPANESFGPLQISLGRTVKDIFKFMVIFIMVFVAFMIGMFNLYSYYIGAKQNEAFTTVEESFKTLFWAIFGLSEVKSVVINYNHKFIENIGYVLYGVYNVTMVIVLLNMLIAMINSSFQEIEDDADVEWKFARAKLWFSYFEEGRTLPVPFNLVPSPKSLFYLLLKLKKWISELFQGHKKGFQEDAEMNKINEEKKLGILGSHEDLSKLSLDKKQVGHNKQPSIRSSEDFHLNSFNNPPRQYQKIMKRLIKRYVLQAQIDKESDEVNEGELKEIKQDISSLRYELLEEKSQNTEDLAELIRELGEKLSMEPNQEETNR
Summary of the method: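 TRPC6 (human) stable cells, 24 h culture; Ca5 no-wash dye + probenecid 30 min; cpd 20 min; OAG 30 μM final; ΔF (pre-cpd min to post-OAG max); 0%/100% = no cpd / no cpd + no OAG; 4PL → pIC50, binned +/++/+++.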

IC50 [nM]	SMILES
10 to 1000	N#Cc1ccc(-c2ccc(CCN)cc2)c(Oc2cnnc(-c3cccc(F)c3C#N)c2)c1 [Compound 84, 2-[5-[2-[4-(2-aminoethyl)phenyl]-5-cyanophenoxy]pyridazin-3-yl]-6-fluorobenzonitrile]
10 to 1000	Cc1nc(Oc2cc(C#N)ccc2-c2ccc(CCN)cn2)cc(N2CCOCC2)n1 [Compound 85, 4-[5-(2-aminoethyl)pyridin-2-yl]-3-(2-methyl-6-morpholin-4-ylpyrimidin-4-yl)oxybenzonitrile]
10 to 1000	Cc1nc(Oc2cc(C#N)ccc2-c2ccc(CCN)cn2)cc(-c2ccccc2)n1 [Compound 86, 4-[5-(2-aminoethyl)pyridin-2-yl]-3-(2-methyl-6-phenylpyrimidin-4-yl)oxybenzonitrile]
> 1000	N#Cc1ccc(-c2ccc(CCN)cn2)c(Oc2cnnc(Cl)c2)c1 [Compound 87, 4-[5-(2-aminoethyl)pyridin-2-yl]-3-(6-chloropyridazin-4-yl)oxybenzonitrile]
> 1000	N#Cc1ccc(-c2ccc(CCN)cn2)c(Oc2cc(Cl)cnn2)c1 [Compound 88, 4-[5-(2-aminoethyl)pyridin-2-yl]-3-(5-chloropyridazin-3-yl)oxybenzonitrile]
> 1000	N#Cc1ccc(-c2ccc(CCN)cn2)c(Oc2cnnc(N3CCOCC3)c2)c1 [Compound 89, 4-[5-(2-aminoethyl)pyridin-2-yl]-3-(6-morpholin-4-ylpyridazin-4-yl)oxybenzonitrile]
10 to 1000	N#Cc1ccc(-c2ccc(CCN)cn2)c(Oc2cnnc(N3CCCCC3)c2)c1 [Compound 90, 4-[5-(2-aminoethyl)pyridin-2-yl]-3-(6-piperidin-1-ylpyridazin-4-yl)oxybenzonitrile]
> 1000	N#Cc1ccc(-c2ccc(CCN)cn2)c(Oc2cc(N3CCOCC3)cnn2)c1 [Compound 91, 4-[5-(2-aminoethyl)pyridin-2-yl]-3-(5-morpholin-4-ylpyridazin-3-yl)oxybenzonitrile]
> 1000	N#Cc1ccc(-c2ccc(CCN)cn2)c(Oc2cc(N3CCCCC3)cnn2)c1 [Compound 92, 4-[5-(2-aminoethyl)pyridin-2-yl]-3-(5-piperidin-1-ylpyridazin-3-yl)oxybenzonitrile]
< 10	N#Cc1ccc(-c2ccc(CCN)cc2)c(Oc2cnnc(-c3ccccc3C#N)c2)c1 [Compound 93, 4-[4-(2-aminoethyl)phenyl]-3-[6-(2-cyanophenyl)pyridazin-4-yl]oxybenzonitrile]
> 1000	N#Cc1ccc(-c2ccc(CCN)cc2)c(Oc2cnnc(-c3ccccc3C(N)=O)c2)c1 [Compound 94, 2-[5-[2-[4-(2-aminoethyl)phenyl]-5-cyanophenoxy]pyridazin-3-yl]benzamide]
> 1000	Cc1nc(Oc2cc(C#N)ccc2-c2ccc3c(c2)CNCC3)cc(N2CCOCC2)n1 [Compound 95, 3-(2-methyl-6-morpholin-4-ylpyrimidin-4-yl)oxy-4-(1,2,3,4-tetrahydroisoquinolin-7-yl)benzonitrile]
> 1000	Cc1nc(Oc2cc(C#N)ccc2-c2ccc(C(O)CN(C)C)cc2)cc(-c2ccccc2)n1 (centres unmarked) [Compound 96, 4-[4-[2-(dimethylamino)-1-hydroxyethyl]phenyl]-3-(2-methyl-6-phenylpyrimidin-4-yl)oxybenzonitrile]
> 1000	Cc1nc(Oc2cc(C#N)ccc2-c2ccc(C(O)CN3CCCC3)cc2)cc(-c2ccccc2)n1 (centres unmarked) [Compound 97, 4-[4-(1-hydroxy-2-pyrrolidin-1-ylethyl)phenyl]-3-(2-methyl-6-phenylpyrimidin-4-yl)oxybenzonitrile]
> 1000	Cc1nc(Oc2cc(C#N)ccc2-c2nc(C)c(C(O)CN(C)C)s2)cc(-c2ccccc2)n1 (centres unmarked) [Compound 98, 4-[5-[2-(dimethylamino)-1-hydroxyethyl]-4-methyl-1,3-thiazol-2-yl]-3-(2-methyl-6-phenylpyrimidin-4-yl)oxybenzonitrile]
> 1000	Cc1nc(Oc2cc(C#N)ccc2-c2nc(C(O)CN(C)C)c(C)n2C)cc(-c2ccccc2)n1 (centres unmarked) [Compound 99, 4-[4-[2-(dimethylamino)-1-hydroxyethyl]-1,5-dimethylimidazol-2-yl]-3-(2-methyl-6-phenylpyrimidin-4-yl)oxybenzonitrile]

IC50 [nM]	SMILES
< 10	CCOC(CN)c1ccc(-c2ccc(C#N)cc2Oc2cc(N3CCOCC3)nc(C)n2)cc1 (centres unmarked) [Compound 100, 4-[4-(2-amino-1-ethoxyethyl)phenyl]-3-(2-methyl-6-morpholin-4-ylpyrimidin-4-yl)oxybenzonitrile]
< 10	Cc1nc(Oc2cc(C#N)ccc2-c2ccc(C(CN)C(F)(F)F)cc2)cc(N2CCOCC2)n1 (centres unmarked) [Compound 101, 4-[4-(3-amino-1,1,1-trifluoropropan-2-yl)phenyl]-3-(2-methyl-6-morpholin-4-ylpyrimidin-4-yl)oxybenzonitrile]
10 to 1000	N#Cc1ccc(-c2ccc(CCN)nc2)c(Oc2cnnc(-c3ccccc3)c2)c1 [Compound 102, 4-[6-(2-aminoethyl)pyridin-3-yl]-3-(6-phenylpyridazin-4-yl)oxybenzonitrile]
10 to 1000	N#Cc1ccc(-c2ccc(CCN)cn2)c(Oc2cnnc(-c3ccccc3)c2)c1 [Compound 103, 4-[5-(2-aminoethyl)pyridin-2-yl]-3-(6-phenylpyridazin-4-yl)oxybenzonitrile]
> 1000	Cc1nc(Oc2cc(C#N)ccc2-n2cc(C(O)CN(C)C)cn2)cc(-c2ccccc2)n1 (centres unmarked) [Compound 104, 4-[4-[2-(dimethylamino)-1-hydroxyethyl]pyrazol-1-yl]-3-(2-methyl-6-phenylpyrimidin-4-yl)oxybenzonitrile]
> 1000	Cc1nc(Oc2cc(C#N)ccc2-n2cc(C(O)CN(C)C)cn2)cc(N2CCOCC2)n1 (centres unmarked) [Compound 105, 4-[4-[2-(dimethylamino)-1-hydroxyethyl]pyrazol-1-yl]-3-(2-methyl-6-morpholin-4-ylpyrimidin-4-yl)oxybenzonitrile]
> 1000	Cc1nc(Oc2cc(C#N)ccc2-c2ccc(C(O)CN(C)C)cc2)cc(N2CCOCC2)n1 (centres unmarked) [Compound 106, 4-[4-[2-(dimethylamino)-1-hydroxyethyl]phenyl]-3-(2-methyl-6-morpholin-4-ylpyrimidin-4-yl)oxybenzonitrile]
10 to 1000	N#Cc1ccc(-c2ccc(CCN)cc2)c(Oc2cnnc(OC3CCCC3)c2)c1 [Compound 107, 4-[4-(2-aminoethyl)phenyl]-3-(6-cyclopentyloxypyridazin-4-yl)oxybenzonitrile]
10 to 1000	CC(C)(C)COc1cc(Oc2cc(C#N)ccc2-c2ccc(CCN)cc2)cnn1 [Compound 108, 4-[4-(2-aminoethyl)phenyl]-3-[6-(2,2-dimethylpropoxy)pyridazin-4-yl]oxybenzonitrile]
> 1000	N#Cc1ccc(-c2ccc(CCN)cc2)c(Oc2cnnc(OCC(F)(F)F)c2)c1 [Compound 109, 4-[4-(2-aminoethyl)phenyl]-3-[6-(2,2,2-trifluoroethoxy)pyridazin-4-yl]oxybenzonitrile]
> 1000	Cc1noc(C)c1-c1cc(Oc2cc(C#N)ccc2-c2ccc(CCN)cc2)cnn1 [Compound 110, 4-[4-(2-aminoethyl)phenyl]-3-[6-(3,5-dimethyl-1,2-oxazol-4-yl)pyridazin-4-yl]oxybenzonitrile]
10 to 1000	Cn1nc(C(F)(F)F)cc1-c1cc(Oc2cc(C#N)ccc2-c2ccc(CCN)cc2)cnn1 [Compound 111, 4-[4-(2-aminoethyl)phenyl]-3-[6-[2-methyl-5-(trifluoromethyl)pyrazol-3-yl]pyridazin-4-yl]oxybenzonitrile]
< 10	Cc1nc(Oc2cc(C#N)ccc2-c2ccc(CCN)cc2)cc(N2CCC[C@H]2C#N)n1 [Compound 112, (2S)-1-[6-[2-[4-(2-aminoethyl)phenyl]-5-cyanophenoxy]-2-methylpyrimidin-4 yl]pyrrolidine-2-carbonitrile]
< 10	N#Cc1ccc(-c2ccc(CCN)cc2)c(Oc2cc(N3CCOCC3)nc(C(F)(F)F)n2)c1 [Compound 113, 4-[4-(2-aminoethyl)phenyl]-3-[6-morpholin-4-yl-2-(trifluoromethyl)pyrimidin-4-yl]oxybenzonitrile]
10 to 1000	N#Cc1ccc(-c2ccc(CCN)cc2)c(Oc2cnnc(-c3ccccn3)c2)c1 [Compound 114, 4-[4-(2-aminoethyl)phenyl]-3-(6-pyridin-2-ylpyridazin-4-yl)oxybenzonitrile]
< 10	Cn1nc(-c2ccccc2)cc1Oc1cc(C#N)ccc1-c1ccc(CCN)cc1 [Compound 115, 4-[4-(2-aminoethyl)phenyl]-3-(2-methyl-5-phenylpyrazol-3-yl)oxybenzonitrile]

Reference: patent publication US20230167073A1 (Teijin Pharma Limited, priority 2020, published 2023)
